Assay: in vitro
Procedure: A test compound (final concentration 10 μM) was incubated at 37 °C in SGF, SIF, or human plasma for 2, 2, or 4 h, respectively. 100 μL aliquots were taken from each sample and 300 μL of acetonitrile containing an internal standard was added. […] All compounds were tested in triplicate. The percentage of a remaining compound after incubation was determined based on the chromatographic peak area of the sample after incubation and that of time zero (freshly prepared and injected) sample.

SMILES: O=C(O)c1cc2ccccc2n1Cc1cccc2ccccc12 [Compound 2a]
- Stability in human plasma, % Remaining at 4 h (4 h, 10 μM): 97.6%
- remaining at 4 h, 10 μM (human, plasma, Stability in human plasma, % Remaining at 4 h): 97.6 ± 7.95%
- Stability in SGF, % Remaining at 2 h (simulated gi fluid, 2 h, 10 μM): 91.9%
- Stability in SIF, % Remaining at 2 h (simulated gi fluid, 2 h, 10 μM): 104.1%
- remaining at 2 h, 10 μM (simulated gi fluid, Stability in SGF): 91.9 ± 2.68%
- remaining at 2 h, 10 μM (simulated gi fluid, Stability in SIF): 104 ± 14.2%
